According to PMC5849211 (Chemical Science, 2017):

Tested on: Saos-2 cells
Assay: MTT assay, Saos-2 cells
Type: cell-based, human
Conditions: 0.5 mM levamisole, 3 h + 24 h, n = 3

`c1ccc([C@H]2CN3CCSC3=N2)cc1` [levamisole] was tested, and the “cell viability, Saos-2, levamisole alone” value was “no obvious effect on the cell viability alone”.
